# Measured values from patent US20120004289A1, “ANNEXIN A11 AND ASSOCIATED GENES AS BIOMARKERS FOR CANCER” (The Johns Hopkins University, priority 2009, published 2012).
# Legend:
# Assay type in all cases: cell-based, human
# [1] = tested on: 2008 cells; assay: Time course of gene expression response to cisplatin, Agilent 44K whole genome oligo microarray; settings: 10 μM cisplatin
# Procedure: 2008 cells were cultured in T150 flasks and transfected with A1 or negative control for 2 days. Cells were then collected, counted, and placed into 100-mm dishes. After incubating overnight, transfected cells were at 50% confluence and treated with 10 μM cisplatin (Sigma-Aldrich, St. Louis, Mo.) for 0, 8, 16, and 24 hours and then harvested in two portions for both total RNA and total protein extractions at every single time point. The optimized dose and duration of cisplatin treatment were experimentally determined in a previous study. Total RNA was isolated using TRIZOL reagent (Invitrogen) followed by RNeasy mini kit with DNase on-column digestion (Qiagen, Valencia, Calif.). RNA was quantified with NanoDrop ND-1000 followed by quality assessment with the 2100 Bioanalyzer (Agilent Technologies, Santa Clara, Calif.) according to manufacturer's protocol. Total RNA was labeled using Agilent Low RNA Input Fluorescent Linear Amplification Kit (Agilent) following the manufacturer's instruction with minor modifications. Briefly, 0.4 μg of RNA was reverse transcribed into cDNA by MMLV-RT using an oligo dT primer (System Biosciences, Mountain View, Calif.) that incorporated a T7 promoter sequence. The cDNA was then used as a template for in vitro transcription in the presence of T7 RNA polymerase and cyanine-3-labeled CTPs (Perkin Elmer Life Sciences, Boston, Mass.). RNA spike-in controls (Agilent) were added to RNA samples before amplification and labeling. The labeled cRNA was purified using the RNeasy mini kit (Qiagen). A total of 0.825 μg of each Cy3-labeled sample was used for hybridization on Agilent 4×44K whole human genome microarray at 65° C. for 17 hours in a hybridization oven with rotation. After hybridization, slides were washed and dried using stabilization and drying solution according to the Agilent microarray processing protocol. Slides were scanned using the Agilent Microarray Scanner controlled by Agilent Scan Control 7.0 software. Microarray data were extracted with Agilent Feature Extraction 9.5.3.1 software and imported into GeneSpring GX 10 (Agilent). […]
# [2] = tested on: 2008 cells; assay: Real-time PCR validation of gene expression response to cisplatin; settings: both groups of cells
# Procedure: 2008 cells were cultured in T150 flasks and transfected with A1 or negative control for 2 days. Cells were then collected, counted, and placed into 100-mm dishes. After incubating overnight, transfected cells were at 50% confluence and treated with 10 μM cisplatin (Sigma-Aldrich, St. Louis, Mo.) for 0, 8, 16, and 24 hours and then harvested in two portions for both total RNA and total protein extractions at every single time point. The optimized dose and duration of cisplatin treatment were experimentally determined in a previous study. Total RNA was isolated using TRIZOL reagent (Invitrogen) followed by RNeasy mini kit with DNase on-column digestion (Qiagen, Valencia, Calif.). RNA was quantified with NanoDrop ND-1000 followed by quality assessment with the 2100 Bioanalyzer (Agilent Technologies, Santa Clara, Calif.) according to manufacturer's protocol. […]. One microgram of total RNA was used to generate cDNA using the iScript cDNA Synthesis Kit (Bio-Rad, Hercules, Calif.). […] An experiment consisted of triplicate amplification reactions for each gene product being analyzed. […] The cycle threshold number (CT) was determined for each PCR using iQ5 Real-time PCR Detection System (Bio-Rad). […] Results are expressed as relative abundance of a specific mRNA between control and experimental sample (fold change, mean±SD).
# [3] = tested on: 2008 cells; assay: Cell cytotoxicity assay of cisplatin (CCK-8) in siRNA- or control-transfected 2008 cells; settings: 72 hours
# Procedure: (A and B) Cell proliferation assay. 2008 (A) or HEY (B) cells were treated with RNAi (A1) or -Ctr at the concentration of 40 nM for 3 days, respectively, and then plated at 3000 viable cells per well into 96-well plates. Every 24 hours, one plate was subjected to assay by CCK-8 kit. The data in each time point are averaged values from eight replicates (P<0.05). (C) Colony formation assay. 2008 cells were treated in the same way as above for 3 days and then plated at 3000 viable cells per well into six-well plates. Six days after plating, cells were fixed with methanol and stained with 0.1% crystal violet and colonies were counted. The experiment was performed in six replicates (P<0.01). (D) Cell cytotoxicity assay. 2008 cells were treated in same way as above for 3 days and then plated at 3000 viable cells per well into 96-well plates. After incubating overnight, cells were treated with various concentration of cisplatin diluted in 100 μl of conditioned medium (the final concentrations of cisplatin were 0, 1.56, 3.13, 6.25, 12.5, 25, 50, and 100 μg/ml). After continuous incubation for 72 hours, the plates were subjected to assay by CCK-8 kit. The experiment was performed in three replicates (P<0.01). Three independent experiments were performed for each assay. […] Cells were then collected, counted, and plated at 3000 viable cells per well into 96-well plates in a final volume of 100 μl. […]
compound,measurement,setting,value
N.N.[Cl][Pt][Cl] [cisplatin],number of genes upregulated or downregulated more than two-fold vs 0 hour in both groups of cells,[1]; 8 hours,6 genes
same,number of genes upregulated or downregulated more than two-fold vs 0 hour in both groups of cells,[1]; 16 hours,19 genes
same,number of genes upregulated or downregulated more than two-fold vs 0 hour in both groups of cells,[1]; 24 hours,47 genes
same,PCSK9 gene expression (real-time PCR),"[2]; 10 μM cisplatin, 8, 16 and 24 hours",decreased at 8 hours but increased at 16 and 24 hours
same,DHRS2 gene expression (real-time PCR),"[2]; 10 μM cisplatin, 16 and 24 hours",down-regulation
same,fold increase of IC50 in RNAi cells compared with control cells,[3],2.6 fold
